Data from ChEMBL document CHEMBL1144525, “Prediction of binding for a kind of non-peptic HCV NS3 serine protease inhibitors from plants by molecular docking and MM-PBSA method” (Bioorg Med Chem, 2007).

test: Inhibition of HCV NS3 serine protease; set-up: species or system Hepacivirus hominis

Structure (SMILES) | IC50 [µM]
O=C(OC[C@H]1O[C@@H](O)[C@H](O)[C@@H](OC(=O)c2cc(O)c(O)c(O)c2)[C@@H]1O)c1cc(O)c(O)c(O)c1 | 950
O=C(O[C@@H]1O[C@H](CO)[C@@H](OC(=O)c2cc(O)c(O)c(O)c2)[C@H](OC(=O)c2cc(O)c(O)c(O)c2)[C@H]1O)c1cc(O)c(O)c(O)c1 | 1
O=C(OC[C@H]1O[C@@H](OC(=O)c2cc(O)c(O)c(O)c2)[C@H](O)[C@@H](OC(=O)c2cc(O)c(O)c(O)c2)[C@@H]1O)c1cc(O)c(O)c(O)c1 | 10.1
O=C(Oc1cc(C(=O)O[C@@H]2O[C@H](CO)[C@@H](OC(=O)c3cc(O)c(O)c(O)c3)[C@H](OC(=O)c3cc(O)c(O)c(O)c3)[C@H]2OC(=O)c2cc(O)c(O)c(O)c2)cc(O)c1O)c1cc(O)c(O)c(O)c1 | 0.68
O=C(Oc1c(O)cc(C(=O)O[C@H]2[C@H](OC(=O)c3cc(O)c(O)c(O)c3)O[C@H](CO)[C@@H](OC(=O)c3cc(O)c(O)c(O)c3)[C@@H]2OC(=O)c2cc(O)c(O)c(O)c2)cc1O)c1cc(O)c(O)c(O)c1 | 0.66
